Read-outs that look alike come from different tables or passages of the source.

The subject of data set [1] is A20 cells. As to the kind of experiment: MTS viability assay, A20 (Example 1). As to conditions: Mus musculus, 4.5 μg/mL Dox, MPs 4:1 loading, read-out: viable A20. It counts as cell-based, murine. How it is done: The A20 cell line (a BALB/c B cell lymphoma) and the EL4 cell line (a C57BL/6 T cell lymphoma) were purchased from ATCC (Manassas, Va.). Tumor cells were cultured in RPMI-1640 medium (Gibco, Carlsbad, Calif.) supplemented with 10% heat-inactivated FCS (HyClone, Logan, Utah), 100 U/mL penicillin, 100 μg/mL streptomycin, and 50 μM 2-ME (All from Gibco), as complete medium.
To determine the cytotoxic activity of MPs against A20 and EL4, the 3-(4,5 dimethylthiazol-2-yl)-5-(3-carboxymethoxyphenyl-2-(4-sulfophenyl)-2H-tetrazolium (MTS) assay for viability was conducted using CellTiter 96® AQueous Non-Radioactive Cell Proliferation Assay (Promega, Madison, Wis.). Five thousand A20 and EL4 cells were separately incubated with soluble Dox or Dox/CpG MPs (4:1 loading) in 96-well plates for 24, 48, and 72 h (four wells per group) at a final Dox concentration of 4.5 μg/mL. Media or blank MPs at equivalent weights were used as negative controls. The MTS/PMS reagent was then added for 4 h at 37° C. […] Absorbance was read at 490 nm using Thermomax Microplate Reader (Molecular Devices, Sunnyvale, Calif.). […] Viability was assessed as before.
Percent survival was expressed as the ratio of absorbance of treated cells relative to that of untreated cells in media group (after subtracting the absorbance of the blank from each) multiplied by 100. […]
(In general: Tetrazolium assays rely on reduction of a dye to a coloured formazan, in cell work by metabolically active cells.)

Data set [2] has as its system A20 cells. As to the kind of experiment: MTS viability assay, A20 (Example 2). It counts as cell-based, murine. How it is done: (§1) The MTS assay for viability was used to determine the cytotoxic activity of Dox MPs against A20 and DCs (Promega, Madison, Wis.). Briefly, 5×10^3 A20 cells or DCs were incubated with Dox MPs (8 μg/mg) for 24, 48 or 72 h (4 wells per group) at a range of Dox concentrations. Blank MPs were used as negative controls. MTS was added for 4 h at 37° C. Following centrifugation, 90 μl of supernatant was removed. Absorbance was read at 490 nm using a Thermomax Microplate Reader (Molecular Devices, Sunnyvale, Calif.).

A further data set deals with bone-marrow-derived DCs. Put plainly: MTS viability assay, DCs (Example 2). It counts as cell-based, BALB/c mice. As to conditions: 24 h; 1.125 μg/mL Dox; FIG. 8B. How it is done:
To generate murine bone-marrow-derived DCs, bone marrow cells were flushed from tibias and femurs of BALB/c mice, and mononuclear cells isolated using Ficoll gradient separation (Fico/Lite-LM, Atlanta Biologicals, Flowery Branch, Ga.). Cells were cultured in medium supplemented with 20 ng/mL each GM-CSF and IL4 (PeproTech, Rocky Hill, N.J.) for 7 days. Non-adherent cells were harvested. Cells were >70% DCs as determined by CD11c staining.
as §1

In data set [3] the test system is A20 cells phagocytosed by DCs. Put plainly: Phagocytosis assay of A20 by DCs. Conditions: A20 treated 48 h, co-incubated with DCs 1:1 for 2 h. It counts as cell-based, murine. Here is the method:
A20 phagocytosis was quantified using A20 cells labeled with CellTrace Violet (Invitrogen, Carlsbad, Calif.). Labeled A20 were left untreated or treated with Dox MPs for 48 h (3 wells per group) at various concentrations. Controls included soluble Dox (at the same concentrations) and blank MPs (at equivalent weights). Treated A20 were washed and co-incubated with DCs at a 1:1 ratio for 2 h, stained with anti-CD11c-APC-Cy7 (BD), and analyzed by flow cytometry. The percentage of double-positive cells (CD11c and CellTrace Violet) was determined.

For data set [4] the following is noted: lymphoma patients; 30 mg/m^2 Dox; cited from earlier work.

For the compound `COc1cccc2c1C(=O)c1c(O)c3c(c(O)c1C2=O)C[C@@](O)(C(=O)CO)C[C@@H]3O[C@H]1C[C@H](N)[C@H](O)[C@H](C)O1` [soluble Dox, Doxorubicin], the viability at 4.5 µg/mL amounted to 26% in the data set with A20 cells [1] (A20, 24 h, day 1) and 4% in the data set with A20 cells [1] (A20, 48 h, day 2). Further, the “survival of A20” value in the data set with A20 cells [2] (24 h, 1.125 μg/mL Dox, FIG. 8B comparison with DCs) is reported as 26%. The compound further displayed a viability at 0.5625 µg/mL in the data set with A20 cells [2] (Mus musculus, A20, Day 1 (24 h), 0.5625 μg/mL Dox, FIG. 8A) of 87%. Moreover, the viability at 1.125 µg/mL in the data set with A20 cells [2] (Mus musculus, A20, Day 1 (24 h), 1.125 μg/mL Dox, FIG. 8A) was 46%; with A20 cells [2] (Mus musculus, A20, Day 2 (48 h), 1.125 μg/mL Dox), 5%. In addition, the “survival of DCs” value with bone-marrow-derived DCs came to 19%. Also, the “phagocytosis of A20 tumor cells by DCs” value in data set [3] is given as “enhanced phagocytosis of A20 cells”. In addition, in data set [4], the peak plasma concentration is reported as 278 ng/mL.

The values are drawn from patent publication US10314854B2, “Methods for treating tumors in situ including intratumor injection of cytotoxic particles and immune checkpoint blockade therapy” (University of Iowa Research Foundation, priority 2015, dated 2019).
